5 molecules from paper PMC6222329 (Molecules : A Journal of Synthetic Chemistry and Natural …, 2018) can be followed below.

Common to all, as to format: biochemical
In assay [1] the target is T1, BChE (Equine) (Equus caballus, UniProt P81908).
T1 construct: purchased Sigma-Aldrich (Steinheim, Germany)
Kind of assay: biochemical. On the procedure: (§1) The assay was performed in two steps.
(§2) All enzymes were obtained from Sigma-Aldrich (Steinheim, Germany). Ellman’s reagent and the substrates were obtained from Fluka (Buchs, Switzerland). The chemicals used to prepare the buffer solution were purchased from Merck (Darmstadt, Germany).
(§3) The enzyme inhibitory activities of the synthesized compounds were investigated by applying Ellman’s method. Enzyme solutions were dissolved in gelatin solution (1%; 2.5 units/mL). […] Then, the reaction was initiated by the addition of Ellman’s reagent 5,5′-Dithiobis(2-nitrobenzoic acid) (DTNB; 20 µL/well, 10 mM) and the substrate (10 µL/well, 75 mM). […] The enzyme solution was processed as a control. All readings were adjusted with blank-reading. All assays were performed in four independent wells. […] Absorbance differences between the two readings were taken, and percentage inhibition rates were calculated according to the following formula: % Inhibition=[(A(C)−A(B))−(A(I)−A(B))]/(A(C)−A(B))×100.
(§4) • Blank (B): the well in which the inhibitor compound and substrate were not added; • Control (C): the well where the inhibitor compound was not added; • A(B): the difference in absorbance reading for the blank; • A(C): the difference in absorbance reading for the control; • A(I): the difference in absorbance reading for the inhibitor compounds.

For assay [2], the target named is T2, AChE (Electrophorus electricus) (Electrophorus electricus, UniProt O42275).
T2 construct: purchased Sigma-Aldrich (Steinheim, Germany)
T2 sequence (O42275 24-633): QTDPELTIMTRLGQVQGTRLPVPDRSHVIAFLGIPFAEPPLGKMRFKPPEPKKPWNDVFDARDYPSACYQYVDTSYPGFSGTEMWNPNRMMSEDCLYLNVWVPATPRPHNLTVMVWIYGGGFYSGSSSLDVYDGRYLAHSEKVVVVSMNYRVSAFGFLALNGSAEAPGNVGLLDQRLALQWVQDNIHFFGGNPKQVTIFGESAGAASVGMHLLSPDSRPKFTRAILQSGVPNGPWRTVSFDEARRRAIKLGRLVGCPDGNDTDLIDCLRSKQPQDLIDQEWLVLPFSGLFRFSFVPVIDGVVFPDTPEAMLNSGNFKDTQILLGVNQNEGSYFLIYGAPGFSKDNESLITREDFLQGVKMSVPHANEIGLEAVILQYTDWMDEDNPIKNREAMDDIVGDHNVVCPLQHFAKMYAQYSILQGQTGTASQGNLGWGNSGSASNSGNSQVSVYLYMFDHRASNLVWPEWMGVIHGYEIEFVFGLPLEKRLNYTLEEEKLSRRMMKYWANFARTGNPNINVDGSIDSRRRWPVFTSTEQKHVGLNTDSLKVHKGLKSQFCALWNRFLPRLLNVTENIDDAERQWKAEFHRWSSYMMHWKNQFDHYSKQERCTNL
Kind of assay: AChE inhibition, Ellman's method. The procedure:
as §1, §2, §3, §4

For assay [3], the target named is T3, AChE (Human) (Homo sapiens, UniProt P22303).
T3 construct: purchased Sigma-Aldrich (Steinheim, Germany)
T3 sequence (P22303 32-614): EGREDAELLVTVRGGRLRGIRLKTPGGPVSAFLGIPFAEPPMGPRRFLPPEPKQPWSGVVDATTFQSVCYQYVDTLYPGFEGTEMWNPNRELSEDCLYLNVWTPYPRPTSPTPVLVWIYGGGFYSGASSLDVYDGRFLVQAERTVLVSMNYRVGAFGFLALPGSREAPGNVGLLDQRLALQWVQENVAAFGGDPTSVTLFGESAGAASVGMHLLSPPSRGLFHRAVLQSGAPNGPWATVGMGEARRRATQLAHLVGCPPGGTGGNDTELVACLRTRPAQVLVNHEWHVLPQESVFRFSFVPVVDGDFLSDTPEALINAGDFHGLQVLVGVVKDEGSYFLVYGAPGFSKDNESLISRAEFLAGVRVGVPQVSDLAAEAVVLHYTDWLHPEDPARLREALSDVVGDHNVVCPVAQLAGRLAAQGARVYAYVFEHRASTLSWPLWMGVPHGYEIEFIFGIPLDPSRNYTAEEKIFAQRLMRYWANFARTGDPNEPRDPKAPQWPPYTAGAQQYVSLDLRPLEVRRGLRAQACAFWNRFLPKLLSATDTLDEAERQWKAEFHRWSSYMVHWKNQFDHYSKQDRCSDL
In words: AChE inhibition, Ellman's method. On the procedure: as §1, §2, §3, §4

The target of assay [4] is T4, BChE (Human) (Homo sapiens, UniProt P06276).
T4 construct: purchased Sigma-Aldrich (Steinheim, Germany)
T4 sequence (P06276 29-602): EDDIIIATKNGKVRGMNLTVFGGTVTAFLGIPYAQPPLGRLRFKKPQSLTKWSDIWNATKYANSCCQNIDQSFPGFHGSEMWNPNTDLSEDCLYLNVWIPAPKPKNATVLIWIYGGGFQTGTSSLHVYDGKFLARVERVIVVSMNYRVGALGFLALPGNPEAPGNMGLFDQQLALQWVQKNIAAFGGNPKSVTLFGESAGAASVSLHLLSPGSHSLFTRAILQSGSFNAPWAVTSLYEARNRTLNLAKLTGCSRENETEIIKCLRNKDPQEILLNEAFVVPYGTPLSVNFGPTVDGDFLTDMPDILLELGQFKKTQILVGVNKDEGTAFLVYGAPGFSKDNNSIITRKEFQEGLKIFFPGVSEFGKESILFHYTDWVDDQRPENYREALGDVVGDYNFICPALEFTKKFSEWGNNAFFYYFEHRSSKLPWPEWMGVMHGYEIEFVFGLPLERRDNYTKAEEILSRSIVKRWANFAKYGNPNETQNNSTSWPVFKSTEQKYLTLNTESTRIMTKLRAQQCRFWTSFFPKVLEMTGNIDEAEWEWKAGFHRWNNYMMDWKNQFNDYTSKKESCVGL
In words: BChE inhibition, Ellman's method. On the procedure: as §1, §2, §3, §4

Setting [5] is: read-out: AChE (Electrophorus electricus) inhibitory activity (%) ± SD.
[6] abbreviates: read-out: AChE (Human) inhibitory activity (%) ± SD.
[7] abbreviates: read-out: BChE (Human) inhibitory activity (%) ± SD.

T1 sequence (P81908 whole entry): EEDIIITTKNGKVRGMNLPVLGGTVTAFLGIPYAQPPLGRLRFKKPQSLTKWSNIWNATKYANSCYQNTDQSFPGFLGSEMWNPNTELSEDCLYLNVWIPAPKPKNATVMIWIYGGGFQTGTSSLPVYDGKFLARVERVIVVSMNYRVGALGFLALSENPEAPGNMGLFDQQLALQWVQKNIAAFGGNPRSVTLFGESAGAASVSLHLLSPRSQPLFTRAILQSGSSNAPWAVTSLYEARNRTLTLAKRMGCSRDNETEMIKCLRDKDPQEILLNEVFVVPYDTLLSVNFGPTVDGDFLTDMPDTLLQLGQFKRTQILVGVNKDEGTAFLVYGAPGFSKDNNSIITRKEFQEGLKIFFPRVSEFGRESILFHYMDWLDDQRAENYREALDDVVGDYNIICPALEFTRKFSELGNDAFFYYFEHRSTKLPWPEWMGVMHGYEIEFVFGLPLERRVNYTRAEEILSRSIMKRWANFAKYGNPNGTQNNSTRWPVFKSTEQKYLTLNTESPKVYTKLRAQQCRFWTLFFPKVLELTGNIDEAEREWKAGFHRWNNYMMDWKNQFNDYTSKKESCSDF

As to `Nc1c2ccccc2nc2ccccc12` [Aminoacridine, 9-aminoacridine, reference compound], the IC50 in assay [1] was 233 ± 9 nM; in assay [4], 221 ± 7 nM. Moreover, the inhibition at 1000 µM was 91.2 ± 1.2% in assay [1] (10^-3 M, read-out: BChE (Equine) inhibitory activity (%) ± SD); 85.2 ± 1.08% in assay [2] (setting [5]); 87.2 ± 0.97% in assay [3] (setting [6]); 90.4 ± 1.04% in assay [4] (setting [7]). For the same molecule, the inhibition at 100 µM in assay [1] (10^-4 M, read-out: BChE (Equine) inhibitory activity (%) ± SD) is 87.3 ± 1.07%; in assay [2] (setting [5]), 75.2 ± 1.15%; in assay [3] (setting [6]), 78.2 ± 0.89%; in assay [4] (setting [7]), 86.1 ± 1.22%. Further, the inhibition at 10 µM was determined as 71.5 ± 1.02% in assay [1] (10^-5 M, read-out: BChE (Equine) inhibitory activity (%) ± SD); 59 ± 1.05% in assay [2] (setting [5]); 55.3 ± 0.82% in assay [3] (setting [6]); 74.3 ± 1.08% in assay [4] (setting [7]). Further, the inhibition at 1 µM amounted to 56.3 ± 0.97% in assay [1] (10^-6 M, read-out: BChE (Equine) inhibitory activity (%) ± SD); 41.7 ± 0.97% in assay [2] (setting [5]); 44.3 ± 0.74% in assay [3] (setting [6]); 53.3 ± 0.99% in assay [4] (setting [7]). Further, the inhibition at 0.1 µM came to 42.8 ± 0.63% in assay [1] (10^-7 M, read-out: BChE (Equine) inhibitory activity (%) ± SD); 31.6 ± 0.82% in assay [2] (setting [5]); 35.8 ± 0.67% in assay [3] (setting [6]); 46.8 ± 0.7% in assay [4] (setting [7]). The inhibition at 0.01 µM in assay [1] (10^-8 M, read-out: BChE (Equine) inhibitory activity (%) ± SD) stood at 30.1 ± 0.48%; in assay [2] (setting [5]), 20.4 ± 0.55%; in assay [3] (setting [6]), 21.6 ± 0.42%; in assay [4] (setting [7]), 31.9 ± 0.62%. Besides, the inhibition at 0.001 µM came out at 24.9 ± 0.5% in assay [1] (10^-9 M, read-out: BChE (Equine) inhibitory activity (%) ± SD); 16 ± 0.48% in assay [2] (setting [5]); 16.7 ± 0.37% in assay [3] (setting [6]); 22.7 ± 0.48% in assay [4] (setting [7]).

As to `CCN1CCN(C(=S)SCC(=O)Nc2c3ccccc3nc3ccccc23)CC1` [Compound 4c, 2-(9-Acridinylamino)-2-oxoethyl 4-ethylpiperazine-1-carbodithioate], the “BChE (Equine) inhibitory activity (%) ± SD” value was 45.18±0.94% in assay [1] (10^-3 M) and 22.70 ± 0.70% in assay [1] (10^-4 M). Besides, the “AChE (Electrophorus electricus) inhibitory activity (%) ± SD” value is reported as 50.73±2.21% in assay [2] (10^-3 M) and 5.11 ± 0.09% in assay [2] (10^-4 M). Further, the “AChE (Human) inhibitory activity (%) ± SD” value in assay [3] (10^-3 M) amounted to 51.25±1.45%; in assay [3] (10^-4 M), 10.28 ± 0.22%. Moreover, the “BChE (Human) inhibitory activity (%) ± SD” value is on record as 50.23±0.88% in assay [4] (10^-3 M) and 20.55 ± 0.61% in assay [4] (10^-4 M).

For `O=C(CSC(=S)N1CCN(c2ccc([N+](=O)[O-])cc2)CC1)Nc1c2ccccc2nc2ccccc12` [Compound 4d, 2-(9-Acridinylamino)-2-oxoethyl 4-(4-nitrophenyl)piperazine-1-carbodithioate], the results for the “BChE (Equine) inhibitory activity (%) ± SD” value in assay [1] (10^-3 M) and in assay [1] (10^-4 M) were 77.75±1.79% and 40.19 ± 0.49%, respectively. For the same molecule, the “AChE (Electrophorus electricus) inhibitory activity (%) ± SD” value in assay [2] (10^-3 M) is listed as 55.62±1.14%; in assay [2] (10^-4 M) it was 31.64 ± 0.45%. Moreover, the “AChE (Human) inhibitory activity (%) ± SD” value in assay [3] (10^-3 M) amounted to 50.46±1.09%; in assay [3] (10^-4 M), 34.71 ± 0.77%. Moreover, the “BChE (Human) inhibitory activity (%) ± SD” value is on record as 80.56±1.51% in assay [4] (10^-3 M) and 45.26 ± 0.60% in assay [4] (10^-4 M).

In the case of `O=C(CSC(=S)N1CCN(c2ccccc2)CC1)Nc1c2ccccc2nc2ccccc12` [Compound 4f, 2-(9-Acridinylamino)-2-oxoethyl 4-phenylpiperazine-1-carbodithioate], the “BChE (Equine) inhibitory activity (%) ± SD” value in assay [1] (10^-3 M) was 77.60±1.60%; in assay [1] (10^-4 M), 12.80 ± 0.87%. The “AChE (Electrophorus electricus) inhibitory activity (%) ± SD” value came out at 77.65±2.42% in assay [2] (10^-3 M) and 4.70 ± 0.27% in assay [2] (10^-4 M). Also, the “AChE (Human) inhibitory activity (%) ± SD” value in assay [3] (10^-3 M) worked out at 74.28±1.04%; in assay [3] (10^-4 M), 8.71 ± 0.62%. Besides, the results for the “BChE (Human) inhibitory activity (%) ± SD” value in assay [4] (10^-3 M) and in assay [4] (10^-4 M) were 75.23±1.25% and 15.67 ± 0.79%, respectively.

In the case of `CN1CCN(C(=S)SCC(=O)Nc2c3ccccc3nc3ccccc23)CC1` [Compound 4g, 2-(9-Acridinylamino)-2-oxoethyl 4-methylpiperazine-1-carbodithioate], the “BChE (Equine) inhibitory activity (%) ± SD” value in assay [1] (10^-3 M) was determined as 78.11±2.24%; in assay [1] (10^-4 M) it was 33.65 ± 0.89%. Besides, the “AChE (Electrophorus electricus) inhibitory activity (%) ± SD” value in assay [2] (10^-3 M) is given as 26.90±0.83%; in assay [2] (10^-4 M) it was 10.44 ± 0.66%. Further, the figures for the “AChE (Human) inhibitory activity (%) ± SD” value in assay [3] (10^-3 M) and in assay [3] (10^-4 M) were 30.85±0.65% and 11.30 ± 0.58%, respectively. For the same molecule, the entries for the “BChE (Human) inhibitory activity (%) ± SD” value in assay [4] (10^-3 M) and in assay [4] (10^-4 M) were 80.29±2.40% and 35.97 ± 0.80%, respectively.
